The target in this assay is T1, NfrB (Escherichia coli, UniProt P0AFA5).
T1 construct: soluble MshEN domain, NfrB^414-745
The assay can be described thus: microscale thermophoresis with purified protein; DRaCALA with […]-c-di-GMP and competition by unlabeled c-di-GMP. The format is binding. (MST reads how a fluorescent partner responds to local heating, with and without ligand.)

T1 sequence (P0AFA5 414-745): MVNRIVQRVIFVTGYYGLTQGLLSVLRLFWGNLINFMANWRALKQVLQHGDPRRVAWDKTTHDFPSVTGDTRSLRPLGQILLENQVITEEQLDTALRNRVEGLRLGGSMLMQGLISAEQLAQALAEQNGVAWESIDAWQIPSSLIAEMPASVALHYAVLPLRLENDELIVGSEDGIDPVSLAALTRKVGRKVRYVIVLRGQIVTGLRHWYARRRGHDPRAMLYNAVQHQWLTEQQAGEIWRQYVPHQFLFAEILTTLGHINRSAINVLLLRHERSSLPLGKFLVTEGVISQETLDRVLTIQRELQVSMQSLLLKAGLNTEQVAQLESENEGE

The molecule `Nc1nc2c(ncn2[C@@H]2O[C@@H]3CO[P@](=O)(O)O[C@H]4[C@@H](O)[C@H](n5cnc6c(=O)[nH]c(N)nc65)O[C@@H]4CO[P@](=O)(O)O[C@H]3[C@H]2O)c(=O)[nH]1` [c-di-GMP] came in with an equilibrium dissociation constant (Kd) of 1000 ± 350 nM.

As usually defined, the Kd is the concentration at which binding is half-saturated. A lower Kd goes with a tighter complex.

For the origin of these results see PMC8669469, “A Novel Locally c-di-GMP-Controlled Exopolysaccharide Synthase Required for Bacteriophage N4 Infection of Escherichia coli” (mBio, 2021).
